Patent publication US6765010B2, “Compositions and methods for enhancing analgesic potency of tramadol and attenuating its adverse side effects” (Pain Therapeutics, Inc., priority 1999, dated 2004)

Tests used:
[1] = system: human subjects/patients with pain following dental surgery; experiment: Dental surgery pain study: time to onset of meaningful pain relief; assay type: in vivo; settings: ITT
Excerpt: (§1) For this randomized, double-blind, active-controlled and placebo-controlled, parallel-group study, human subjects were randomized into one of the following five treatment groups:
(§2) A positive control (T, Group 4) was used to determine the sensitivity of the clinical end points. A negative control (placebo, Group 5) was used to establish the frequency and magnitude of changes in clinical end points that may occur in the absence of an active treatment. A single oral dose of study medication was administered when the subject experienced moderate to severe pain following the surgical extraction of three or four third molars. At least one of the molars was required to be mandibular bony impacted.
A pain assessment was also performed post-treatment. Following dosing, pain intensity and pain relief was recorded at the following times: 30 minutes, 60 minutes and hourly thereafter up to Hour 8 after dosing. All efficacy assessments were recorded by the subject in a diary in response to questioning by the trained observer. […] Pain intensity was measured in response to the question, “How much pain do you have now?” with (1) subject response choices of none, mild, moderate and severe on a categorical scale, and (2) a mark on a 100-mm VAS. […]
Time to remedication (or rescue medication) was analyzed using the Kaplan-Meier estimate to compute the survival distribution function. […]

[2] = system: human subjects/patients with pain following dental surgery; experiment: Dental surgery pain study: remedication (rescue medication); assay type: in vivo; settings: ITT
Excerpt: as §1, §2
The subject was then given a rescue medication and discontinued from study. The subject was encouraged to wait at least until Hour 2 after administration of the study medication before using rescue medication. Subjects remedicating earlier than Hour 1 were not included in the analysis for efficacy. Subjects not remedicating during the eight hours of evaluation received a diary card and asked to record the time of remedication after they left the clinic.
Time to remedication (or rescue medication) was analyzed using the Kaplan-Meier estimate to compute the survival distribution function. The distribution was compared among groups using the Log Rank Test. A subject was considered censored at eight hours if remedication had not occurred. Pairwise comparisons were made using the LIFETEST methodology. Hochberg's procedure was used to control the family-wise type 1 error. Time to Onset of Meaningful Relief (determined by the stopwatch) was similarly analyzed. […] In all the above analyses baseline pain intensity could be used as a stratification factor. […] The sample size was estimated from historical data and from practical considerations rather than from calculation of expected measured differences.

[3] = system: human subjects/patients with pain following dental surgery; experiment: Dental surgery pain study: adverse events
[4] = ITT, counted once per subject (Table 15)
[5] = Severity = Moderate, ITT subjects

COc1cccc([C@@]2(O)CCCC[C@@H]2CN(C)C)c1.Cl (racemic) [tramadol, (1RS,2RS)-2[(dimethylamino)-methyl]-1-(3-methoxyphenyl)-cyclohexanol HCL]
Time to Onset of Meaningful Pain Relief, Median ([1]; Kaplan-Meier): 3.85 h
Number of Subjects with Meaningful Pain Relief ([1]; within 8 hours): 17 subjects
Time to Remedication up to 8 Hours, Median ([2]; Kaplan-Meier): 2.48 h
Time to Remedication up to 24 Hours, Median ([2]; Kaplan-Meier): 2.48 h
Percent of Subject who take Remedication up to 8 hours, No ([2]; first section of Table 9): 15 (30.0%) n (%)
Percent of Subject who take Remedication up to 8 hours, Yes ([2]; first section of Table 9): 35 (70.0%) n (%)
Percent of Subject who take Remedication up to 8 hours, No ([2]; second section of Table 9): 8 (16.0%) n (%)
Percent of Subject who take Remedication up to 8 hours, Yes ([2]; second section of Table 9): 42 (84.0%) n (%)
Number of Subjects taken Rescue Medication ([2]; up to 8 Hours): 35 subjects
Number of Subjects taken Rescue Medication ([2]; up to 24 Hours): 42 subjects
Adverse events: Number (%) with Events ([3]; ITT, Severity = Severe): 3 (6.0%) n (%)
Adverse events: Number of Events ([3]; ITT, Severity = Severe): 3 events
Gastrointestinal Disorders, frequency (percentage) ([3]; ITT, Severity = Severe): 2 (4.0%) n (%)
Gastrointestinal Disorders, occurrence ([3]; ITT, Severity = Severe): 2 events
Headache Nos, frequency (percentage) ([3]; ITT, Severity = Severe): 1 (2.0%) n (%)
Headache Nos, occurrence ([3]; ITT, Severity = Severe): 1 events
Nausea, frequency (percentage) ([3]; ITT, Severity = Severe): 2 (4.0%) n (%)
Nausea, occurrence ([3]; ITT, Severity = Severe): 2 events
Nervous System Disorders, frequency (percentage) ([3]; ITT, Severity = Severe): 1 (2.0%) n (%)
Nervous System Disorders, occurrence ([3]; ITT, Severity = Severe): 1 events
Vomiting Nos, frequency (percentage) ([3]; ITT, Severity = Severe): 1 (2.0%) n (%)
Vomiting Nos, occurrence ([3]; ITT, Severity = Severe): 1 events
Adverse events: Number (%) with Events ([3]; ITT, all severities): 40 (80%) n (%)
Adverse events: Number of Events ([3]; ITT, all severities): 134 events
Dizziness (Exc Vertigo), frequency (percentage) ([3]; ITT, all severities): 15 (30.0%) n (%)
Dizziness (Exc Vertigo), occurrence ([3]; ITT, all severities): 19 events
Gastrointestinal Disorders, frequency (percentage) ([3]; ITT, all severities): 20 (40.0%) n (%)
Gastrointestinal Disorders, occurrence ([3]; ITT, all severities): 40 events
Headache Nos, frequency (percentage) ([3]; ITT, all severities): 28 (56.0%) n (%)
Headache Nos, occurrence ([3]; ITT, all severities): 38 events
Nausea, frequency (percentage) ([3]; ITT, all severities): 20 (40.0%) n (%)
Nausea, occurrence ([3]; ITT, all severities): 28 events
Nervous System Disorders, frequency (percentage) ([3]; ITT, all severities): 40 (80.0%) n (%)
Nervous System Disorders, occurrence ([3]; ITT, all severities): 89 events
Pruritus Nos, frequency (percentage) ([3]; ITT, all severities): 2(4.0%) n (%)
Pruritus Nos, occurrence ([3]; ITT, all severities): 2 events
Sedation, frequency (percentage) ([3]; ITT, all severities): 28 (56.0%) n (%)
Sedation, occurrence ([3]; ITT, all severities): 32 events
Skin & Subcutaneous Tissue Disorders, frequency (percentage) ([3]; ITT, all severities): 2 (4.0%) n (%)
Skin & Subcutaneous Tissue Disorders, occurrence ([3]; ITT, all severities): 2 events
Vomiting Nos, frequency (percentage) ([3]; ITT, all severities): 10 (20.0%) n (%)
Vomiting Nos, occurrence ([3]; ITT, all severities): 12 events
Incidence of Nausea, No [3, 4]: 30 (60.0%) n (%)
Incidence of Nausea, Yes [3, 4]: 20 (40.0%) n (%)
Incidence of Vomiting Nos, No [3, 4]: 40 (80.0%) n (%)
Incidence of Vomiting Nos, Yes [3, 4]: 10 (20.0%) n (%)
Dizziness (Exc Vertigo), frequency (subjects) ([3]; Severity = Mild, ITT subjects): 12
Dizziness (Exc Vertigo), occurrence (events) ([3]; Severity = Mild, ITT subjects): 16
Dizziness (Exc Vertigo), percentage of subjects ([3]; Severity = Mild, ITT subjects): 24.0%
Gastrointestinal Disorders, frequency (subjects) ([3]; Severity = Mild, ITT subjects): 6
Gastrointestinal Disorders, occurrence (events) ([3]; Severity = Mild, ITT subjects): 15
Gastrointestinal Disorders, percentage of subjects ([3]; Severity = Mild, ITT subjects): 12.0%
Headache Nos, frequency (subjects) ([3]; Severity = Mild, ITT subjects): 17
Headache Nos, occurrence (events) ([3]; Severity = Mild, ITT subjects): 26
Headache Nos, percentage of subjects ([3]; Severity = Mild, ITT subjects): 34.0%
Nausea, frequency (subjects) ([3]; Severity = Mild, ITT subjects): 9
Nausea, occurrence (events) ([3]; Severity = Mild, ITT subjects): 14
Nausea, percentage of subjects ([3]; Severity = Mild, ITT subjects): 18.0%
Nervous System Disorders, frequency (subjects) ([3]; Severity = Mild, ITT subjects): 23
Nervous System Disorders, occurrence (events) ([3]; Severity = Mild, ITT subjects): 66
Nervous System Disorders, percentage of subjects ([3]; Severity = Mild, ITT subjects): 46.0%
Number of Events ([3]; Severity = Mild, ITT subjects): 84
Number of subjects with adverse events ([3]; Severity = Mild, ITT subjects): 15
Percentage of subjects with adverse events ([3]; Severity = Mild, ITT subjects): 30.0%
Pruritus Nos, frequency (subjects) ([3]; Severity = Mild, ITT subjects): 2
Pruritus Nos, occurrence (events) ([3]; Severity = Mild, ITT subjects): 2
Pruritus Nos, percentage of subjects ([3]; Severity = Mild, ITT subjects): 4.0%
Sedation, frequency (subjects) ([3]; Severity = Mild, ITT subjects): 21
Sedation, occurrence (events) ([3]; Severity = Mild, ITT subjects): 24
Sedation, percentage of subjects ([3]; Severity = Mild, ITT subjects): 42.0%
Skin & Subcutaneous Tissue Disorders, frequency (subjects) ([3]; Severity = Mild, ITT subjects): 2
Skin & Subcutaneous Tissue Disorders, occurrence (events) ([3]; Severity = Mild, ITT subjects): 2
Skin & Subcutaneous Tissue Disorders, percentage of subjects ([3]; Severity = Mild, ITT subjects): 4.0%
Vomiting Nos, frequency (subjects) ([3]; Severity = Mild, ITT subjects): 3
Vomiting Nos, occurrence (events) ([3]; Severity = Mild, ITT subjects): 4
Vomiting Nos, percentage of subjects ([3]; Severity = Mild, ITT subjects): 6.0%
Dizziness (Exc Vertigo), frequency (subjects) [3, 5]: 3
Dizziness (Exc Vertigo), occurrence (events) [3, 5]: 3
Dizziness (Exc Vertigo), percentage of subjects [3, 5]: 6.0%
Gastrointestinal Disorders, frequency (subjects) [3, 5]: 12
Gastrointestinal Disorders, occurrence (events) [3, 5]: 23
Gastrointestinal Disorders, percentage of subjects [3, 5]: 24.0%
Headache Nos, frequency (subjects) [3, 5]: 10
Headache Nos, occurrence (events) [3, 5]: 11
Headache Nos, percentage of subjects [3, 5]: 20.0%
Nausea, frequency (subjects) [3, 5]: 10
Nausea, occurrence (events) [3, 5]: 13
Nausea, percentage of subjects [3, 5]: 20.0%
Nervous System Disorders, frequency (subjects) [3, 5]: 16
Nervous System Disorders, occurrence (events) [3, 5]: 22
Nervous System Disorders, percentage of subjects [3, 5]: 32.0%
Number of Events [3, 5]: 47
Number of subjects with adverse events [3, 5]: 22
Percentage of subjects with adverse events [3, 5]: 44.0%
Sedation, frequency (subjects) [3, 5]: 7
Sedation, occurrence (events) [3, 5]: 8
Sedation, percentage of subjects [3, 5]: 14.0%
Vomiting Nos, frequency (subjects) [3, 5]: 9
Vomiting Nos, occurrence (events) [3, 5]: 10
Vomiting Nos, percentage of subjects [3, 5]: 18.0%
